The source made the active and inactive calls. Cut-off read from the data, not from the text of the source, for most assays here: actives have a measured EC50 and inactives only a lower limit.
Key:
[1] = NIH-3T3 fibroblast cytotoxicity, dose response, cytotoxicity control, cell-based, fluorescence, Alamar Blue, secondary assay (AID 2327); assay type: functional;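 note: NIH-3T3 mouse fibroblasts cultured with fluconazole at 8 µg/mL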
[2] = system: Streptococcus sp. 'group A'; experiment: Streptococcus pyogenes SK(-)GAS viability under kanamycin – luminescence, BacTiterGlo, confirmation, counter-screen for streptokinase expression inhibitor project, dose response (AID 1900); assay type: functional, organism-based
BJ [3] = experiment: BJ-TERT fibroblast viability loss – cell-based, RAS-independent, luminescence, dose response (AID 1933); assay type: functional; conditions: Homo sapiens
Beta-galactosidase = Beta-galactosidase (Escherichia coli, UniProt Q8VNN2); experiment: PubChem AID 485352; assay type: functional
Beta-galactosidase, sequence (Q8VNN2 whole entry): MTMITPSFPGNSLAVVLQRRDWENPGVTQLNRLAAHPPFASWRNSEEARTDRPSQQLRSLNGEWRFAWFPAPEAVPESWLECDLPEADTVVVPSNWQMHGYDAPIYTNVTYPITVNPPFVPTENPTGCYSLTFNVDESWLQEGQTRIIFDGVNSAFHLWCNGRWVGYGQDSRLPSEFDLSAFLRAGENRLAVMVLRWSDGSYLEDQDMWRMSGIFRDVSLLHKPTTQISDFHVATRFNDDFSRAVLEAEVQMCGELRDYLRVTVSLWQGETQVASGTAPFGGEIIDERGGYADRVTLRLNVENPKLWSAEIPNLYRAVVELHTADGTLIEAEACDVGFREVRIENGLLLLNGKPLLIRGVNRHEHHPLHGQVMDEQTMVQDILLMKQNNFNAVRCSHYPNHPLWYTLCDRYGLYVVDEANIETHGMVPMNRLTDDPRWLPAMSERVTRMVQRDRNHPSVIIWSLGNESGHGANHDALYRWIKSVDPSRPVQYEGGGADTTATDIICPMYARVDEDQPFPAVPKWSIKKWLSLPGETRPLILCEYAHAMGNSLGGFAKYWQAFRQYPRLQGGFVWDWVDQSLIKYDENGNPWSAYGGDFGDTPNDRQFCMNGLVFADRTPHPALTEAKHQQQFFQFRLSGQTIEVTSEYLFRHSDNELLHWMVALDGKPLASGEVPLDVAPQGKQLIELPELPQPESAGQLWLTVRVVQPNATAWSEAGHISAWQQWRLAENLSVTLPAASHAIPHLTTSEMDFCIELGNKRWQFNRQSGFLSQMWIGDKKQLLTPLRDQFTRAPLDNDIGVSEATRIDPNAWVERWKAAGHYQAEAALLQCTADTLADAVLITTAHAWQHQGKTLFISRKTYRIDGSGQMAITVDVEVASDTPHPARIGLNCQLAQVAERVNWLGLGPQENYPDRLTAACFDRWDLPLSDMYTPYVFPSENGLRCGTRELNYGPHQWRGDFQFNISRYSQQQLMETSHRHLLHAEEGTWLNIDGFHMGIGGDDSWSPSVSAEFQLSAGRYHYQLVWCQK

Streptokinase A = target: T1, Streptokinase A (Streptococcus pyogenes serotype M1, UniProt P10520); experiment: viability-normalized secreted streptokinase activity reduction – plasminogen activation absorbance, OD405, dose response (AID 1914); assay type: functional, Streptococcus pyogenes M1 GAS;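 note: secreted streptokinase activity via plasminogen activation per viability signal from cell pellet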
T1 sequence (P10520 whole entry): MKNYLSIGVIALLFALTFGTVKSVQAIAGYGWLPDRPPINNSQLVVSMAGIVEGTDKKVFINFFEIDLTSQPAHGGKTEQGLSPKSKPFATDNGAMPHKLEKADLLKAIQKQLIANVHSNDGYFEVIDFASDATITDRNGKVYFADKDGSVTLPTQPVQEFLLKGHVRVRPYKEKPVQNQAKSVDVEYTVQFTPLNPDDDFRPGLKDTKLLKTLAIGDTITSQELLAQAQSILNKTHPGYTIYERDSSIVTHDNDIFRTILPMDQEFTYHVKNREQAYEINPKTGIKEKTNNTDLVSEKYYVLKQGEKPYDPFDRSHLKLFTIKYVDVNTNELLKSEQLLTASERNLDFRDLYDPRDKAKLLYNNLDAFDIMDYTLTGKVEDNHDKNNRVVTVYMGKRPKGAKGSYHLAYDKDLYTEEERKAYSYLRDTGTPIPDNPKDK

BJ [4] = experiment: cells; assay type: functional, cell-based; conditions: Homo sapiens
[5] = fluconazole-exposed Candida albicans growth modulators – fluorescence, retest, confirmation (AID 2467); assay type: functional, cell-based
[6] = target: Type-1 angiotensin II receptor (Homo sapiens, UniProt P30556); experiment: antagonism of angiotensin II type 1 receptor – cell-based, uHTS hits, selectivity assay for APJ receptor antagonist project, dose response (AID 463214); assay type: functional;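 note: antagonist potency against angiotensin II stimulated AT1 response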
Type-1 angiotensin II receptor, sequence (P30556 whole entry): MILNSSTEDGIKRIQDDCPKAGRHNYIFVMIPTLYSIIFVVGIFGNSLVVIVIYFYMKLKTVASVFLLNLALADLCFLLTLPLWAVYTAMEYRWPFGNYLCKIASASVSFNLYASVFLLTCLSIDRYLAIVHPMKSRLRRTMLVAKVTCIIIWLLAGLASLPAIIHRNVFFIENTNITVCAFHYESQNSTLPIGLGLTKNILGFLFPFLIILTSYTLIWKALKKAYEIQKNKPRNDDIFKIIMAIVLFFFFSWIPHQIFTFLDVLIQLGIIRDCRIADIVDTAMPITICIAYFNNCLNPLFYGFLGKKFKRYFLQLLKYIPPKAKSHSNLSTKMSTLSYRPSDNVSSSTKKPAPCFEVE

[7] = target: Serine/threonine-protein phosphatase (Candida dubliniensis (strain CD36 / CBS 7987 / NCPF 3949 / NRRLY-17841) (Yeast), UniProt B9W6M3); experiment: blockers of CaCl2-induced CDRE-lacZ signaling – S. cerevisiae, luminescence, secondary, dose response (AID 2388); assay type: functional, cell-based;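 note: yeast reporter cells carrying a calcineurin-responsive lacZ construct stimulated with calcium chloride; luminescent beta-galactosidase reporter signal in whole cells rather than isolated phosphatase activity; potency for inhibition where a drop in reporter signal means calcineurin blockade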
Serine/threonine-protein phosphatase, sequence (B9W6M3 whole entry): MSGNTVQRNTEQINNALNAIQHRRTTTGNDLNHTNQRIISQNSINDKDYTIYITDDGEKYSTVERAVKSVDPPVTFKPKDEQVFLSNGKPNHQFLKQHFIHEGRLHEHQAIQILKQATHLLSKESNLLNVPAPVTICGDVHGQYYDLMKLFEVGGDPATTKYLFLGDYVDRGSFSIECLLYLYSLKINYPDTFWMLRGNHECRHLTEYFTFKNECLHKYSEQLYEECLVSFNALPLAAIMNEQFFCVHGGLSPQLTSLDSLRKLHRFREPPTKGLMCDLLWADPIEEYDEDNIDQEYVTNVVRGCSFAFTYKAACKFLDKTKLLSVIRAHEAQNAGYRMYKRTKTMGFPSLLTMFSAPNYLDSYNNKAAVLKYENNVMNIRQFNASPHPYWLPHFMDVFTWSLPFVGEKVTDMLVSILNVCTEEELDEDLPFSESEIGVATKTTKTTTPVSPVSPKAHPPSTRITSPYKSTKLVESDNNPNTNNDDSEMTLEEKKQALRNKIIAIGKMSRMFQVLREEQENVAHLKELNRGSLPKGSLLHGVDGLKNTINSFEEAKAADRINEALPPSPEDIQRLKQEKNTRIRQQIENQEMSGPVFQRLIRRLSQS

BJ [8] = experiment: BJ-TERT-LT-ST fibroblast viability loss – cell-based, RAS-independent, luminescence, dose response (AID 1935); assay type: functional; conditions: Homo sapiens;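 note: BJ fibroblasts immortalized with TERT plus LT and ST oncogenes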
[9] = DRD fibroblast viability loss – cell-based, non-viral oncogenic, luminescence, dose response (AID 1934); assay type: functional; conditions: Homo sapiens
Streptococcus = experiment: GAS UMAA2166 growth inhibition – luminescence, BacTiterGlo, counter-screen for streptokinase expression inhibitor project, dose response (AID 1915); assay type: functional, organism-based;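 note: potency for reduction of bacterial viability or growth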
[10] = target: Intestinal-type alkaline phosphatase (Homo sapiens, UniProt P09923); experiment: activation of human intestinal alkaline phosphatase – biochemical, dose response (AID 488873); assay type: functional
Intestinal-type alkaline phosphatase (Homo sapiens, UniProt P09923), sequence (P09923 whole entry): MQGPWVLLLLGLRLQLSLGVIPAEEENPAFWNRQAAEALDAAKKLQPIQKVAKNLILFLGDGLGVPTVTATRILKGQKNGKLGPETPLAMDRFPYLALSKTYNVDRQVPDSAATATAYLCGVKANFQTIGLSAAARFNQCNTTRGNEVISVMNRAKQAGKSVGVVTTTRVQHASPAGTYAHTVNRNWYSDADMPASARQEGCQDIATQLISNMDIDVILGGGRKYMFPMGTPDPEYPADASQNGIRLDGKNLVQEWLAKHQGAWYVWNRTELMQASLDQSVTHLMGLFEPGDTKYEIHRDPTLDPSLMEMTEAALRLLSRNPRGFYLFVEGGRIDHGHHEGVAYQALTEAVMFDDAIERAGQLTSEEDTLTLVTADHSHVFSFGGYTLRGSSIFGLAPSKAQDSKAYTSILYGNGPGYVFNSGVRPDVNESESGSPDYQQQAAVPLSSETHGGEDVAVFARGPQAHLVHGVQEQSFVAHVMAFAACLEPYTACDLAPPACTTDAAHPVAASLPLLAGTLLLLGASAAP

[11] = target: Beta-adrenergic receptor kinase 1 (Homo sapiens, UniProt P25098); experiment: aptamer displacement from bead-bound GRK2 – biochemical, cherry pick 1, bead flow cytometry, dose response (AID 504500)
Beta-adrenergic receptor kinase 1, sequence (P25098 whole entry): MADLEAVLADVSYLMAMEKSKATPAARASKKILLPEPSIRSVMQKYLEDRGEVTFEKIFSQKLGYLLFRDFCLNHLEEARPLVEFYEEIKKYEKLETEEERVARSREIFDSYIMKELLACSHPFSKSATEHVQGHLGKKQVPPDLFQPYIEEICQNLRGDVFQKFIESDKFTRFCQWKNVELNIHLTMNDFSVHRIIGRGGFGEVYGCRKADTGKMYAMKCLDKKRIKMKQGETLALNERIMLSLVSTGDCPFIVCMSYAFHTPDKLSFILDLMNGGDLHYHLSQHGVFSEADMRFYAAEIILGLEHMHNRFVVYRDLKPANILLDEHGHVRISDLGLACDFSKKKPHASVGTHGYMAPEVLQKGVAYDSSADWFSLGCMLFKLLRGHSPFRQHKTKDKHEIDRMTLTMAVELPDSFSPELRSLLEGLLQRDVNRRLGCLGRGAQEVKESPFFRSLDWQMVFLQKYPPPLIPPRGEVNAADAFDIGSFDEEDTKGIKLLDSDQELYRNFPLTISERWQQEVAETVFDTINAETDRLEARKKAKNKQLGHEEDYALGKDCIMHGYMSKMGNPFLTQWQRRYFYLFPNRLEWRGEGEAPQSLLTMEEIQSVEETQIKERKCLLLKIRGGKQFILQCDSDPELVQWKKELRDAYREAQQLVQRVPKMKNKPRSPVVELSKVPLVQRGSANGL

[12] = HEK-293T viability loss after treatment – luminescence, T-cell screen hits, cytotoxicity control for TCR NF-kB inhibitor project, dose response (AID 489026); assay type: functional, cell-based;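 note: cells exposed to compound about 14 hours before the viability readout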
[13] = target: Intestinal-type alkaline phosphatase (Mus musculus, UniProt P24822); experiment: mouse intestinal alkaline phosphatase activators, dose response, biochemical, luminescence, uHTS hits (AID 488783); assay type: functional
[14] = target: T2, Alkaline phosphatase, tissue-nonspecific isozyme (Homo sapiens, UniProt P05186); experiment: activation of tissue-nonspecific alkaline phosphatase – biochemical, TNAP isozyme, mouse IAP uHTS hits, selectivity assay for mouse IAP activator project, dose response (AID 488880); assay type: functional
T2 sequence (P05186 whole entry): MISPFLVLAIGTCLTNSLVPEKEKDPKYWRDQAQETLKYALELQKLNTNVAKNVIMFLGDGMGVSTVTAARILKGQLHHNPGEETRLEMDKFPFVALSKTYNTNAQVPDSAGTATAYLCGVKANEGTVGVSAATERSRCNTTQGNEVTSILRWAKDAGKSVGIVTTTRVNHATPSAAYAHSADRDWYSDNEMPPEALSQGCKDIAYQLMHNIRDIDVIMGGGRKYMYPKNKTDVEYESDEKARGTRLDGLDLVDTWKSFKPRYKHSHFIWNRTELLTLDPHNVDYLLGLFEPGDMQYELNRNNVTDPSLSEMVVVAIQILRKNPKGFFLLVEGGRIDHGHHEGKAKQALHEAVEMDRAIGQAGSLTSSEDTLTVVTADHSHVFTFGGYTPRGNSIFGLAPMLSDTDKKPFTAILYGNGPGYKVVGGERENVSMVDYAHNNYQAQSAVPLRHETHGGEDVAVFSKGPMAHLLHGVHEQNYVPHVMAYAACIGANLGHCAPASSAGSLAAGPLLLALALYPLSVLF

[15] = target: T3, Apoptotic protease-activating factor 1 (Homo sapiens, UniProt O14727); assay type: functional
T3 sequence (O14727 whole entry): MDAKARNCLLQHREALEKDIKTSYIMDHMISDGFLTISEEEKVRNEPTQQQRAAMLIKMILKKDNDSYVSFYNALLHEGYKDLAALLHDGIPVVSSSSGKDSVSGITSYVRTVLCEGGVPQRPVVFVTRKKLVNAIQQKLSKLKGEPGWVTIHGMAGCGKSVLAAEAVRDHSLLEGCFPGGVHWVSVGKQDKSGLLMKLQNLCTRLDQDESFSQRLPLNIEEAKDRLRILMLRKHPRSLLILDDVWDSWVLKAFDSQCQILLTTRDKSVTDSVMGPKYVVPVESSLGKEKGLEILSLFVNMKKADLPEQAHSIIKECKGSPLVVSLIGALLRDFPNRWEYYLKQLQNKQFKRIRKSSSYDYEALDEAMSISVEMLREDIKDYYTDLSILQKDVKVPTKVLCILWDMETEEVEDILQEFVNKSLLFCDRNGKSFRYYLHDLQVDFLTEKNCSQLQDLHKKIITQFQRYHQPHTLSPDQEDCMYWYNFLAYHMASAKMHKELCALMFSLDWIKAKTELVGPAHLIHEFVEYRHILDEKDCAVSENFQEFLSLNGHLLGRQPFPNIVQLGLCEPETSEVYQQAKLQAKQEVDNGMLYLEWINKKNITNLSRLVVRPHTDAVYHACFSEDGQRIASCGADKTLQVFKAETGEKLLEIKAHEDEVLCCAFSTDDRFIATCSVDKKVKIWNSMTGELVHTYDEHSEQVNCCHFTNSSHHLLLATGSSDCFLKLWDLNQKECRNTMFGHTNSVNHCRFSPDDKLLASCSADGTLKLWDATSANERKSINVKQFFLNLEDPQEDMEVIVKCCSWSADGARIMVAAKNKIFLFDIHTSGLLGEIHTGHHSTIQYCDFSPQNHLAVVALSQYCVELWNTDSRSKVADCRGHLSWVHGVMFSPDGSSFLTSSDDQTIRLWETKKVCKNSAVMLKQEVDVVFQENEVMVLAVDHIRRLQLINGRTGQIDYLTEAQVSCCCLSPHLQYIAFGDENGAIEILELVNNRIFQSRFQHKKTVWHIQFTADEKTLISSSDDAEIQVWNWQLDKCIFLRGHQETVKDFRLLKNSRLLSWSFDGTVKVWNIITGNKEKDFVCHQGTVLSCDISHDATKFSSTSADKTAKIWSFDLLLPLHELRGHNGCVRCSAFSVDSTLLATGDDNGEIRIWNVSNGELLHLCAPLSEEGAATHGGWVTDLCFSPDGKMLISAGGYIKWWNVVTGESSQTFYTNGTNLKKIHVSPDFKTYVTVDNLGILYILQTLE

BJ [16] = experiment: growth inhibition of engineered Ras-driven BJ cells – cell-based, alamar blue fluorescence, cherrypicked samples, dose response (AID 2631); assay type: functional; conditions: Homo sapiens;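 note: confirmatory dose-response assay in RAS-dependent BJ fibroblasts engineered with TERT, LT and ST, with cytotoxicity read by fluorescence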
INS1 = experiment: INS-1E survival protection against cytokine death – cell-based, luminescence, retest, dose response (AID 449756); assay type: functional; conditions: Rattus norvegicus;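 note: cell death triggered by IL-1 beta plus TNF-alpha plus IFN-gamma mixture; protective hits raise ATP signal compared with cytokine alone wells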
[17] = target: ATP-dependent molecular chaperone HSP82 (Candida albicans (strain WO-1) (Yeast), UniProt C4YTQ8); experiment: steroid-induced GRE reporter decrease in yeast – S. cerevisiae, luminescence, Hsp90 inhibitor project, dose response (AID 2400); assay type: functional, cell-based;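 note: beta-galactosidase luminescence from glucocorticoid response element reporter as proxy for Hsp90 function; inhibitor potency where signal loss means Hsp90 inhibition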
ATP-dependent molecular chaperone HSP82, sequence (C4YTQ8 whole entry): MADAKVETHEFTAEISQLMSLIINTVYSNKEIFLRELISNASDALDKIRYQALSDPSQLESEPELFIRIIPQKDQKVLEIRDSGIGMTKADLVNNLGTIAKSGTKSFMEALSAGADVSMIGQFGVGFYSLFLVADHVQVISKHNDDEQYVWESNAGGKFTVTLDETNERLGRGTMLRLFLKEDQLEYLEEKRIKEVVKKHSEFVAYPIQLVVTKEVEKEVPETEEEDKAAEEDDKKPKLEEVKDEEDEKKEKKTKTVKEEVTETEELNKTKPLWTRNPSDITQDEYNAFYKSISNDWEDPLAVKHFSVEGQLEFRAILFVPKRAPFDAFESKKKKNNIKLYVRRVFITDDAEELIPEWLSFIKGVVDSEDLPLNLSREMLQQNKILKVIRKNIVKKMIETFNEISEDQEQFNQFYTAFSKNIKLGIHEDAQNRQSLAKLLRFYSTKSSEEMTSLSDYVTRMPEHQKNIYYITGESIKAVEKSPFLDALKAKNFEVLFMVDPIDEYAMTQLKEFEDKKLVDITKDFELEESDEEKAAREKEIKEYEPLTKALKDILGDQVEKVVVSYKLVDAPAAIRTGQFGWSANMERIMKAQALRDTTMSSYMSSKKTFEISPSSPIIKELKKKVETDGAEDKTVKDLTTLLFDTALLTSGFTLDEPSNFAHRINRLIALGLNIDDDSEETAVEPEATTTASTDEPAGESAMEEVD

[18] = luciferase reporter signal suppression in cells – H4 neuroglioma cells, luminescence, dose response (AID 1990); assay type: functional, cell-based
[19] = Luminescence Cell-Based Dose Response HTS to Identify Inhibitors of 5'UTR Stem-Loop Driven Prion Protein mRNA Translation in H4 Neuroglioblastoma Cells. [Related pubchem assays: 1827 (Project Summary), 1813 (Primary HTS)]; assay type: functional
[20] = alpha-synuclein stem-loop luciferase translation blockers – H4 neuroglioma cells, luminescence, confirmation (AID 1988); assay type: functional, cell-based
HEK293 = experiment: EBV LMP1 TES2 canonical NF-kB signalling blockers – cell-based, HEK293, luciferase, cherry-pick, dose response (AID 588343); assay type: functional; conditions: Homo sapiens
[21] = target: Sphingosine 1-phosphate receptor 2 (Homo sapiens, UniProt O95136); experiment: Late-stage fluorescence-based dose-response cell-based counterscreen assay to identify agonists of the Sphingosine 1-Phosphate Receptor 3 (S1P3): Sphingosine 1-Phosphate Receptor 2 (S1P2) agonist assay.; assay type: functional
Sphingosine 1-phosphate receptor 2, sequence (O95136 whole entry): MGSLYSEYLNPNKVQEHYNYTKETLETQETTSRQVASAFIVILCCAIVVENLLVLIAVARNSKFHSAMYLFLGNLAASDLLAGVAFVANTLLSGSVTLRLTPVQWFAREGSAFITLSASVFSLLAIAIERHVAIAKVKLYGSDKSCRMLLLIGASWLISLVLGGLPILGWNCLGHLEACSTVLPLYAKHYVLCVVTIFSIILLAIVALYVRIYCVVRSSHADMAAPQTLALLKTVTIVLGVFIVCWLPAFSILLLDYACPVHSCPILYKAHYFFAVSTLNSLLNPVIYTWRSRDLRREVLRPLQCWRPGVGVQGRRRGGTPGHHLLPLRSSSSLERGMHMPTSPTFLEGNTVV

[22] = target: T4, Sphingosine 1-phosphate receptor 4 (Homo sapiens, UniProt O95977); experiment: Late-stage fluorescence-based dose-response cell-based counterscreen assay to identify agonists of the Sphingosine 1-Phosphate Receptor 3 (S1P3): Sphingosine 1-Phosphate Receptor 4 (S1P4) agonist assay.; assay type: functional
T4 sequence (O95977 whole entry): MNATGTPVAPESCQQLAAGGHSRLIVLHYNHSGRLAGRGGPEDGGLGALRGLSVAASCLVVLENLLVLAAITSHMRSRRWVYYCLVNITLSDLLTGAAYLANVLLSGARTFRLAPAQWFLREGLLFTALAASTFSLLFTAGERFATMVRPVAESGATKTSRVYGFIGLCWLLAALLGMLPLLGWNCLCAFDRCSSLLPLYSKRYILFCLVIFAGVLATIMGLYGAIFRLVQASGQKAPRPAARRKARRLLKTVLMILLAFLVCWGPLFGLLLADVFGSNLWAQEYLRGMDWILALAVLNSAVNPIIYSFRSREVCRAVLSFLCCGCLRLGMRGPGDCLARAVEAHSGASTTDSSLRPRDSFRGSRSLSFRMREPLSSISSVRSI

[23] = target: 26S proteasome non-ATPase regulatory subunit 14 (Homo sapiens, UniProt O00487); experiment: inhibition of proteasome subunit RPN11 – biochemical, fluorescence polarization, uHTS hits, confirmation (AID 602368); assay type: functional
26S proteasome non-ATPase regulatory subunit 14, sequence (O00487 whole entry): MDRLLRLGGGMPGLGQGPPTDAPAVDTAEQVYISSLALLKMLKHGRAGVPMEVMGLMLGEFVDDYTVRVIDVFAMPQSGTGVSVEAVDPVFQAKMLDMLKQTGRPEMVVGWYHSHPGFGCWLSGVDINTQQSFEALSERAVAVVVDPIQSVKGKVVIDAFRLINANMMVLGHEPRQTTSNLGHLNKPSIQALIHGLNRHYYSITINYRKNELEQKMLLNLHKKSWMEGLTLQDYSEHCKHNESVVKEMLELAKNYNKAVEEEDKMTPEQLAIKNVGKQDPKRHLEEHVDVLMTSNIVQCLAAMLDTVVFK

[24] = target: 72 kDa type IV collagenase (Homo sapiens, UniProt P08253); experiment: Dose Response validation of uHTS RPN11 inhibitor hits using a MMP-2 Fluorescence assay.; assay type: functional
Prothrombin = Prothrombin (Bos taurus, UniProt P00735); experiment: thrombin protease inhibitors – biochemical, fluorescence polarization, uHTS hits, dose response (AID 602369); assay type: functional

For `CCN1/C(=C/c2ccc3cc(C)ccc3[n+]2CC)Sc2ccc3sccc3c21`, the EC50 [1] was 21.1 µM (active), the EC50 [2] was 3.29 µM (active) and the EC50 (BJ [3]) was 1.17 µM (inconclusive). The EC50 (Beta-galactosidase) was > 40 µM (inactive), the EC50 (Streptokinase A) was > 150 µM (not active) and the EC50 (BJ [4]) was 0.966 µM (inconclusive). The EC50 [5] was 0.046 µM (active), the IC50 [6] was > 40 µM (not active) and the EC50 [7] was > 180 µM (inactive). For the same compound, the EC50 (BJ [8]) was 1.23 µM (inconclusive), the EC50 [9] was 1.45 µM (inconclusive) and the EC50 (Streptococcus) was 4.44 µM (active). For the same compound, the EC50 [10] was 61.8 µM (active), the EC50 [11] was 0.12 µM (active) and the IC50 [12] was > 80 µM (inactive). The EC50 [13] was 35.5 µM (active), the EC50 [14] was 60.6 µM (active) and the IC50 [15] was > 100 µM (inactive). The EC50 (BJ [16]) was 0.37 µM (inconclusive), the AC50 (INS1) was < 0.195 µM (active) and the EC50 [17] was 32 µM (active).
In the case of `COc1ccc(Nc2oc(COc3ccccc3OC)nc2C#N)cc1`, the EC50 [18] is reported as 7.69 µM (active), the EC50 [19] is reported as 11 µM (active) and the EC50 [20] is reported as 6.17 µM (active). The AC50 (HEK293) was 6.17 µM (active).
With `O=C(c1cc(C2CC2)on1)N(C1CCCCC1)C1CCCC1` the EC50 [21] was > 50 µM (inactive) and the EC50 [22] was > 50 µM (inactive).
In the case of `COc1cc(NC(=O)CCn2c(=S)[nH]c3ccccc3c2=O)cc(OC)c1OC`, the IC50 [23] is reported as 74.1 µM (active), the IC50 [24] is reported as 4.5 µM (active) and the IC50 (Prothrombin) is reported as > 100 µM (inactive).
